From patent publication US9011956B2, “Natural high-potency sweetener compositions with improved temporal profile and/or flavor profile, methods for their formulation, and uses” (The Coca-Cola Company, priority 2005, dated 2015)

What was measured:
[1] = Sweetness linger sensory evaluation by expert panel (protocol of Example A); type: in vivo, human; set-up: key: 0=no sweetness linger; 1=very slight sweetness linger; 2=slight sweetness linger; 3=moderate sweetness linger; 4=moderately high sweetness linger; 5=high sweetness linger
Procedure: In a particular embodiment, a panel of assessors is used to measure the reduction of sweetness linger. Briefly described, a panel of assessors (generally 8 to 12 individuals) is trained to evaluate sweetness perception and measure sweetness at several time points from when the sample is initially taken into the mouth until 3 minutes after it has been expectorated. […] A decrease in score for a time point measured after the sample has cleared the mouth indicates there has been a reduction in sweetness perception.
Generally, the method of measuring sweetness comprises taking a 10 mL sample into the mouth, holding the sample in the mouth for 5 seconds and gently swirling the sample in the mouth, rating the sweetness intensity perceived at 5 seconds, expectorating the sample (without swallowing following expectorating the sample), rinsing with one mouthful of water (e.g., vigorously moving water in mouth as if with mouth wash) and expectorating the rinse water, rating the sweetness intensity perceived immediately upon expectorating the rinse water, waiting 45 seconds and, while waiting those 45 seconds, identifying the time of maximum perceived sweetness intensity and rating the sweetness intensity at that time (moving the mouth normally and swallowing as needed), rating the sweetness intensity after another 10 seconds, rating the sweetness intensity after another 60 seconds (cumulative 120 seconds after rinse), and rating the sweetness intensity after still another 60 seconds (cumulative 180 seconds after rinse). Between samples take a 5 minute break, rinsing well with water to clear the mouth.
(§1) An exemplary method of sensory evaluation is provided in the following protocol, similar to that described hereinabove. In this test protocol, none of the samples were swallowed. All samples were expectorated and the mouth was rinsed with water after the tasting. In step 1, the 10% sucrose control sample was tasted by distributing ca. 10 mL of sample quickly throughout the oral cavity, wherein the maximal “Sweetness Intensity” was measured. This intensity is defined as a 10 on a 0-15 scale where 0 is defined as no perceptible sweetness and 15, the sweetness of 15% sucrose. Immediately upon sensing maximal sweetness, the sample was expectorated, the mouth was rinsed with water and the rate of sweetness decay (“Sweetness Linger”) was measured, where attention was focused on the sweetness 3-4 min after the water rinse. The sweetness linger was rated by a panel of experts in the sensory evaluation of foods and beverages using the following scale: 0=no sweetness linger, 1=very slight sweetness linger, 2=slight sweetness linger, 3=moderate sweetness linger, 4=moderately high sweetness linger, 5=high sweetness linger. After sample tasting was complete, a salty oyster cracker was chewed followed by a water rinse, and at least 5 minutes followed before tasting the next sample.
The “Sweetness Linger” rating for sucrose observed by this protocol was defined as 0. Experimental samples were tasted by the same protocol, always allowing sufficient time between samples to ensure re-equilibration of the sensory system. Re-tasting of control samples during the course of the experiment was allowed and encouraged.
The comparison taste test was performed between two controls and addition of sweet taste improving additive on the onset and/or sweetness linger.
Where there are ranges provided in the examples, a number of beverages comprising the NHPS, such as rebaudioside-A (REBA), were made 5-7 levels from the top to the bottom range, using a 1:1 dilution of the corresponding sweet taste improving compositions. The sweetness linger rating reported was the most sugar-like in sweetness linger (the lowest numerical value) attained of all the samples (i.e., the shortest sweetness linger). The tasting protocol and sensory scores described in the exemplary protocol of Example A were used in the Examples of Set B. […]

[2] = Sweetness level as sucrose equivalent; type: in vivo, human
Procedure: as §1

[3] = type: physicochemical
Procedure: A solution of rebaudioside A (>97% pure by HPLC) was prepared in double distilled water (12.5 gm in 50 mL, 25% concentration) by stirring the mixture at 40° C. for 5 minutes. An amorphous form of rebaudioside A was formed by immediately using the clear solution for spray drying with the Lab-Plant spray drier SD-04 instrument (Lab-Plant Ltd., West Yorkshire, U.K.). The solution was fed through the feed pump into the nozzle atomizer which atomized it into a spray of droplets with the help of a constant flow of nitrogen/air. […] This dry powder (11-12 g, H2O 6.74%) was discharged continuously from the drying chamber and was collected in a bottle.

For OC[C@H]1O[C@@](CO)(O[C@H]2O[C@H](CO)[C@@H](O)[C@H](O)[C@H]2O)[C@@H](O)[C@@H]1O [sugar, sucrose], the sweetness linger rating ([1]; control: 8 g of sugar in 100 ml of citrate buffer) was 0, the sweetness linger rating ([1]; control: 10 g in 100 ml of carbon treated water) was 0 and the sweetness linger rating ([1]; control: 10 g of sugar in 100 ml carbon treated water, phosphoric acid to pH 2.4-2.5) was 0.
With “mono-ammonium glycyrrhizic acid salt hydrate” the sweetness linger ([1]; control: 375 mg in one liter of carbon-treated water) was 5 and the sweetness level ([2]; 375 mg in one liter of carbon-treated water) was 4 % sucrose equivalent.
With rebaudioside A the sweetness linger rating ([1]; control: 400 ppm REBA in citric acid/potassium citrate composition equivalent to diet lemon-lime beverage) was 5, the sweetness linger rating ([1]; control: 500 ppm REBA in carbon-treated water, phosphoric acid to pH 2.4-2.5) was 5 and the “sucrose equivalent of sweetness” value ([2]; 180 ppm REBA) was 5 % sucrose. The “sucrose equivalent of sweetness” value ([2]; 400 ppm REBA in citric acid/potassium citrate composition) was 8 g sucrose.
For rebaudioside A [Form 4], the “solubility in water at room temperature” value [3] was > 35.0%.
